Results taken from patent US20250002954A1, “Novel Compound, Use Thereof, and Method for Producing Same, and Compound-Containing Composition, Method for Producing 4-Trehalosamine, and Microorganism” (Microbial Chemistry Research Foundation, priority 2021, published 2025).

Experiments:
[1] = tested on: baker's yeast (Saccharomyces cerevisiae F-7); test: Evaluation of baker's yeast protective activity in freeze-dried condition; type: cell-based; settings: for Numbers of live bacterial cells (relative numbers): baker's yeast freeze-dried with 6% aqueous solution (final concentration 3%), test sample 3 (FD) = 1
Method: Using test samples 1 to 8 containing baker's yeast prepared in the following manner, microorganism-protective activity with various kinds of sugar in a freeze-dried condition was evaluated.
Frozen stock of baker's yeast (Saccharomyces cerevisiae F-7, owned by the Microbial Chemistry Research Foundation) was inoculated in 10 mL of YPD culture fluid (1% yeast extract, 2% polypeptone, 2% glucose) and cultured at 27° C. for 2 days while shaking it at 220 rpm. After culture, it was centrifuged at 1,000×g for 5 minutes, washed once with 10 mL of water, and then suspended in 10 mL of water, thus obtaining yeast suspension. 50 μL of water was added to and mixed with 50 μL of this yeast suspension and the mixture was left to stand at 4° C. for 12 hours, preparing control (NF).
(§1) After yeast suspension was prepared in a similar manner to test sample 1, 50 µL of 6% aqueous solution of trehalose was added to and mixed with 50 μL of the yeast suspension, and the mixture was frozen at −80° C. for 1 hour. It was then freeze-dried for 12 hours with a freeze dryer (FLEXI-DRY, manufactured by FTS systems INC., Warminster) connected to a vacuum pump (P65D, manufactured by PHIL Sato Vac INC.), preparing freeze-dried product (TRH) of yeast with TRH.
Freeze-dried product (4TA) of yeast with 4TA was obtained in a similar manner to the preparation method of test sample 4 except that trehalose was changed to 4-trehalosamine (4TA) in the preparation method of test sample 4.
Freeze-dried product (MLT) of yeast with MLT was obtained in a similar manner to the preparation method of test sample 4 except that trehalose was changed to maltose (MLT) in the preparation method of test sample 4.
Freeze-dried product (SCR) of yeast with SCR was obtained in a similar manner to the preparation method of test sample 4 except that trehalose was changed to sucrose (SCR) in the preparation method of test sample 4.
Freeze-dried product (GOL) of yeast with GOL was obtained in a similar manner to the preparation method of test sample 4 except that trehalose was changed to glycerol (GOL) in the preparation method of test sample 4.
(§2) For test samples 1 and 2, serial suspensions were made by diluting them to 1/10 with saline. 100 μL of water was added to each of the freeze-dried products of test samples 3 to 8 and diluted to 1/10 with saline to make their serial suspensions. 60 μL of water was added to 30 μL of each diluted solution.
In a 6-well microplate, 2% Agar-YPD was prepared at 3 mL/well, and 90 μL of each diluted solution was inoculated on the 2% Agar-YPD and cultured at 30° C. for two days.
(§3) Wells in which the number of colonies was measurable were selected and the numbers (relative numbers) of live bacterial cells per well on test samples 1, 2, and 4 to 8 when the number of live bacterial cells per well on test sample 3 (FD) was “1” were calculated in consideration of the dilution concentrations of those test samples.

Escherichia coli K-12 = test: Evaluation of Escherichia coli protective activity in freeze-dried condition; type: cell-based; settings: for Numbers of live bacterial cells (relative numbers): Escherichia coli freeze-dried with 6% aqueous solution (final concentration 3%), test sample 3 (FD) = 1
Method: Using test samples 1 to 8 containing Escherichia coli prepared in the following manner, microorganism-protective activity with various kinds of sugar in a freeze-dried condition was evaluated.
Frozen stock of Escherichia coli (Escherichia coli K-12, owned by the Microbial Chemistry Research Foundation) was inoculated in 10 mL of Luria-Bertani (LB) culture medium (manufactured by Difco) and cultured at 37° C. for 24 hours while shaking it at 220 rpm. After culture, it was centrifuged at 3,000×g for 5 minutes, washed once with 10 mL of water, and then suspended in 10 mL of water, thus obtaining Escherichia coli suspension. 50 μL of water was added to and mixed with 50 μL of this Escherichia coli suspension and the mixture was left to stand at 4° C. for 12 hours, preparing control (NF).
as §1, with “Escherichia coli” for “yeast”, “μL” for “µL”
Freeze-dried product (4TA) of Escherichia coli with 4TA was obtained in a similar manner to the preparation method of test sample 4 except that trehalose was changed to 4-trehalosamine (4TA) in the preparation method of test sample 4.
Freeze-dried product (MLT) of Escherichia coli with MLT was obtained in a similar manner to the preparation method of test sample 4 except that trehalose was changed to maltose (MLT) in the preparation method of test sample 4.
Freeze-dried product (SCR) of Escherichia coli with SCR was obtained in a similar manner to the preparation method of test sample 4 except that trehalose was changed to sucrose (SCR) in the preparation method of test sample 4.
Freeze-dried product (GOL) of Escherichia coli with GOL was obtained in a similar manner to the preparation method of test sample 4 except that trehalose was changed to glycerol (GOL) in the preparation method of test sample 4.
as §2, with “water.” for “saline.”, “water” for “saline”, “80” for “60”, “10” for “30”
In a 6-well microplate, 2% Agar-LB was prepared at 3 mL/well, and 90 μL of each diluted solution was inoculated on the 2% Agar-LB and cultured at 37° C. for 24 hours.
as §3

SMILES: OC[C@H]1O[C@H](O[C@H]2[C@H](O)[C@@H](O)C(O)O[C@@H]2CO)[C@H](O)[C@@H](O)[C@@H]1O (mixture of isomers) [maltose]
- Numbers of live bacterial cells (relative numbers) [1]: 10
- Numbers of live bacterial cells (relative numbers) (Escherichia coli K-12): 10

SMILES: N[C@H]1[C@H](O)[C@@H](O)[C@@H](O[C@H]2O[C@H](CO)[C@@H](O)[C@H](O)[C@H]2O)O[C@@H]1CO [4-trehalosamine]
- Numbers of live bacterial cells (relative numbers) [1]: 100
- protective effect on microorganisms, comparison ([1]; baker's yeast, freeze-dried): stronger than when maltose or sucrose was added
- Numbers of live bacterial cells (relative numbers) (Escherichia coli K-12): 100
- protective effect on microorganisms, comparison (Escherichia coli K-12; Escherichia coli, freeze-dried): stronger than when the other sugars were added

SMILES: OCC(O)CO [GOL, glycerol]
- Numbers of live bacterial cells (relative numbers) [1]: 0
- Numbers of live bacterial cells (relative numbers) (Escherichia coli K-12): 0

SMILES: OC[C@H]1O[C@@](CO)(O[C@H]2O[C@H](CO)[C@@H](O)[C@H](O)[C@H]2O)[C@@H](O)[C@@H]1O [sucrose]
- Numbers of live bacterial cells (relative numbers) [1]: 10
- Numbers of live bacterial cells (relative numbers) (Escherichia coli K-12): 100

SMILES: OC[C@H]1O[C@H](O[C@H]2O[C@H](CO)[C@@H](O)[C@H](O)[C@H]2O)[C@H](O)[C@@H](O)[C@@H]1O [trehalose, reference compound]
- Numbers of live bacterial cells (relative numbers) [1]: 100
- Numbers of live bacterial cells (relative numbers) (Escherichia coli K-12): 10
